Experiments:
[1] = test system: human fetal ventricular cells; experiment: Chronotropic response (beating rate) of cultured human fetal ventricular cells; type: cell-based
From the text: (§1) FIG. 4. Action potentials and chronotropic responses. […] C.
(§2) Ventricular-like action potentials predominated (28 out of 33; table 2) but atrial-like (n=2), pacemaker-like (n=1) and vascular smooth muscle like-cells (n=2) were also found. In areas in which the cells were not beating but had adopted morphologies indistinguishable from beating areas (FIG. 1F), current injection was sufficient to induce repeated action potentials and sustained synchronous rhythmic contractions. Transcripts for MLC-2v were also detected by RTPCR in non-beating, myocyte-like areas (not shown); scoring beating muscle may thus underestimate the number of cardiomyocytes present in culture. […] The effects of phenylephrine, isoprenaline and carbachol on cultured dissociated hES cardiomyocytes were tested and compared to cultured human fetal ventricular cells (FIG. 4B). […] Similar effects were reported in mES derived cardiomyocytes 21 and mouse fetal cells (22).

[2] = test system: hES derived cardiomyocytes; experiment: Chronotropic response (beating rate) of dissociated hES-derived cardiomyocytes; type: cell-based, human; details: cultured dissociated hES cardiomyocytes
From the text: as §1
Co-cultures were initiated as for END-2 cells.
as §2

Row | Structure (SMILES) | effect on beating rate [1] | effect on beating rate [2]
1 | C[N+](C)(C)CCOC(N)=O [Carbachol] | decreased the beating rate | decreased the beating rate
2 | CC(C)NCC(O)c1ccc(O)c(O)c1 (stereo not drawn) [isoprenaline] | increase | increase
3 | CNC[C@H](O)c1cccc(O)c1 [phenylephrine] | increase | increase

Source: US20070161107A1, “Differentiation of human embryonic stem cells to cardiomyocytes” (priority 2003, published 2007)
